The source of these data is patent US20150313236A1 (ROHM AND HAAS COMPANY, priority 2012, published 2015).

Where two headings read alike, the source gives them in different places.

In test [1] the test system is Chlorella sp. ATCC 7516. In words: Algal efficacy test of dry paint films (modified ASTM 5589, 6-well plates). The test is classed as cell-based. Particulars: for inhibition at 2000 ppm: 504 h, read-out: % inhibition of visible algal growth. Here is the method:
(§1) ROCIMA™ 250 (40% IPBC) was post added to a white, acrylic/silicone based outdoor paint free of biocides to give a total active ingredient concentration of 10000 and 1000 ppm respectively. These paints were then diluted with an antimicrobial free acrylic/silicone based paint and mixed to prepare targeted concentrations of antimicrobial compounds for the testing. The total biocides concentrations tested were 125, 250, 500, 1000, 2000 and 5000 ppm. After biocides addition or dilution, the paints were mixed 90 seconds with the horse power shaker (AXEL 75M3372/Agitateur SO-10MI) until uniformity was achieved. Paints containing different antimicrobial compounds at the same levels were mixed together in order to obtain the desired ratio of antimicrobial compounds. After one day, the paints were applied to Schleicher & Schuell filter paper at 280 μm wet film thickness and dried for 3 days at room temperature avoiding direct exposure to sunlight. Square discs (1.6 cm×1.6 cm) were cut out from each panel and were used as the substrate for algal efficacy tests. This sample size allowed for an agar border when the sample disc was placed into the well of the test plate.
(§2) Algal efficacy was tested according to modified ASTM 5589 which is a standard accelerated test method for determining resistance of various coatings (including paints) to algal defacement. To accommodate for high-throughput screening, this method was scaled down from petri dishes to 6-well plates. Bold Modified Basal Freshwater Nutrient Solution was used as growth medium. A single coated filter paper coupon was placed with a pair of sterile forceps at the center of the agar plug (on top) with the painted surface facing upwards. Algal inoculums were prepared by mixing equal concentrations (1×10^6 cfu/ml) and equal volumes of exponentially growing algae cultures.
(§3) Each well that contains a tested coupon was inoculated with 1750 μl of algal suspensions (1×10^6 cfu/ml) making sure that the whole surface (paint film as well as the agar surrounding it) was evenly covered. The plates were incubated at room temp (21° C.-25° C.) with cyclic exposure to light and dark phases, for a period of three weeks.
(§4) At the end of the three week incubation period, the samples were scored for percent inhibition regarding visible algal growth compared to the blank sample (0% inhibition).
(§5) The Synergy Index calculation was performed as follows.
(§6) The SI is calculated based on F. C. Kull et.
(§7) SI value of <1 in the formula indicates a synergism of the blended biocides exists.
(§8) The minimal targeted inhibition was set at 75%, meaning a coupon with at least 75% algal growth inhibition was considered as a pass.

Test [2] has as its system Stichococcus bacillaris SAG 379-1a. Described as above. The test is classed as cell-based. Particulars: 3 weeks. Here is the method: as §1, §2, §3, §4, §5, §6, §7, §8

For the compound `CCCCNC(=O)OCC#CI` [IPBC, 3-Iodoprop-2-yn-1-yl butylcarbamate], the inhibition at 2000 ppm in test [1] (total conc 2000 ppm, 3 weeks, vs blank sample) amounted to 100%. The “Total conc (minimum inhibitory concentration chosen for SI; pass level ≧75% inhibition)” value was determined as 2000 ppm in test [1] (total active in liquid paint, dry film, 3 weeks) and 1000 ppm in test [2] (total active in liquid paint, dry film). Also, the inhibition at 1000 ppm in test [2] (Stichococcus bacillaris, 504 h, total conc 1000 ppm, vs blank sample, read-out: % inhibition of visible algal growth) is 100%.
Take `O=c1[nH]c2c(c(=O)n1C1CCCCC1)CCC2` [Lenacil, 3-cyclohexyl-1,5,6,7-tetrahydrocyclopentapyrimidine-2,4(3H)-dione]: the inhibition at 2000 ppm in test [1] was 65%; in test [2] (Stichococcus bacillaris, 504 h, total conc 2000 ppm, vs blank sample, read-out: % inhibition of visible algal growth), 80%.
